Earlier results as cited in patent US8742076B2, “Nemorubicin metabolite and analog reagents, antibody-drug conjugates and methods” (Genentech, Inc., priority 2008, dated 2014).

Assays:
[1] = comparison with nemorubicin and doxorubicin

Structure (SMILES): COc1cccc2c1C(=O)c1c(O)c3c(c(O)c1C2=O)C[C@@](O)(C(=O)CO)C[C@@H]3O[C@H]1C[C@H]2[C@H](O[C@@H]3[C@@H](OC)OCCN32)[C@H](C)O1 [PNU (159682), 3′-deamino-3″,4′-anhydro-[2″(S)-methoxy-3″(R)-oxy-4″-morpholinyl]doxorubicin]
- efficacy in in vivo tumor models (tumor models): effective
- cytotoxicity in vitro compared with nemorubicin and doxorubicin [1]: remarkably more cytotoxic than nemorubicin and doxorubicin
